{"source": "paper PMC2931804", "about": "(Clinical cancer research : an official journal of the …, 2010)", "key": {"[1]": {"experiment": "FU plasma pharmacokinetics", "assay_type": "in vivo, human", "details": "at the MTD"}, "thymidylate synthase": {"system": "thymidylate synthase", "experiment": "Tumor thymidylate synthase expression by RT-PCR in liver metastasis biopsies", "assay_type": "in vivo, human", "details": "posttreatment biopsies at the MTD levels"}, "[2]": {"system": "dihydropyrimidine dehydrogenase (DPD)", "experiment": "DPD activity assay in peripheral blood mononuclear cells", "assay_type": "in vivo, human"}, "[3]": {"details": "300 mg orally twice daily × 1 week with FOLFOX; cited from earlier work"}}, "note": "Entries after “also recorded” stand apart in the source; their conditions may differ."}
{"smiles": "O=C(CCCCCCC(=O)Nc1ccccc1)NO", "note": "[vorinostat, suberoylanilide hydroxamic acid]", "values": [{"measurement": "Pharmacokinetic interactions between vorinostat and FU", "setting": "[1]", "value": "No pharmacokinetic interactions"}, {"measurement": "Impact of vorinostat on intratumoral thymidylate synthase expression", "setting": "thymidylate synthase", "value": "No definitive impact; also recorded: no clear signs of thymidylate synthase downregulation"}, {"measurement": "Mean DPD level", "setting": "[2]; once-daily MTD arm, four patients, day 2 of cycle 1, baseline 0.189", "value": 0.142, "unit": "nmol/min/mg protein"}, {"measurement": "Mean DPD level", "setting": "[2]; once-daily MTD arm, four patients, day 3 of cycle 1, baseline 0.189", "value": 0.138, "unit": "nmol/min/mg protein"}, {"measurement": "Mean DPD level", "setting": "[2]; once-daily MTD arm, four patients, day 7 of cycle 1, baseline 0.189", "value": 0.126, "unit": "nmol/min/mg protein"}, {"measurement": "Mean DPD level", "setting": "[2]; twice-daily MTD arm, three patients, day 2 of cycle 1, baseline 0.253", "value": 0.199, "unit": "nmol/min/mg protein"}, {"measurement": "Mean DPD level", "setting": "[2]; twice-daily MTD arm, three patients, day 3 of cycle 1, baseline 0.253", "value": 0.138, "unit": "nmol/min/mg protein"}, {"measurement": "Mean DPD level", "setting": "[2]; twice-daily MTD arm, three patients, day 7 of cycle 1, baseline 0.253", "value": 0.198, "unit": "nmol/min/mg protein"}, {"measurement": "Differences in DPD levels over time", "setting": "[2]; within once-daily or twice-daily cohorts, one way ANOVA (P > 0.05)", "value": "not statistically significant"}, {"measurement": "maximum vorinostat serum concentrations", "setting": "[3]", "value": "< 1.5", "unit": "µmol/L"}]}
